Laboratory results: patent publication US20100197590A1, “4-AMINO-7,8-DIHYDROPYRIDO[4,3-d]PYRIMIDIN-5(6H)-ONE DERIVATIVES” (Pfizer Inc, priority 2009, published 2010)

The compounds below were run against T1, Human full-length diacylglycerol:acylCoA acyltransferase 1 (DGAT-1) (Homo sapiens, UniProt O75907) (assay: In vitro DGAT-1 inhibition, Assay 1). Details: Sf9 microsomes at 25 μg/mL, [14C]decanoylCoA, eight inhibitor concentrations; average where n > 1.
T1 construct: Human full-length diacylglycerol:acylCoA acyltransferase 1 (DGAT-1) was expressed in Sf9 insect cells; made in house; host or cells: Sf9 insect cells (baculovirus)
T1 sequence (O75907 1-488): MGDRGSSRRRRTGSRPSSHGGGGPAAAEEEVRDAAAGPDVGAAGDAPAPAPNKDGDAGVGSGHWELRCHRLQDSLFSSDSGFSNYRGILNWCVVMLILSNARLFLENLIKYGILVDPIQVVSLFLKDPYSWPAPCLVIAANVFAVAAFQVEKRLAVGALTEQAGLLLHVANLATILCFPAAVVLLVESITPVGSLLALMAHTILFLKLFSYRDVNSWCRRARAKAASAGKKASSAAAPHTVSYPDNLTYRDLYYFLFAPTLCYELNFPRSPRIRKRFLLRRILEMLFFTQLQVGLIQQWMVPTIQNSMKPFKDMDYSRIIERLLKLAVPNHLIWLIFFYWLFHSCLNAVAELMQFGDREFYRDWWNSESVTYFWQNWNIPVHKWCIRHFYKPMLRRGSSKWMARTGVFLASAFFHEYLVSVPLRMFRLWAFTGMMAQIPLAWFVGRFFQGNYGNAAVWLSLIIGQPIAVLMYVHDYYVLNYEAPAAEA
Assay type: biochemical
Procedure: Human full-length diacylglycerol:acylCoA acyltransferase 1 (DGAT-1) was expressed in Sf9 insect cells which are then lysed and a crude membrane fraction (105,000×g pellet) was prepared. The DGAT-1 gene is a human DGAT-1 gene described in J Biol Chem 273:26765 (1998) and U.S. Pat. No. 6,100,077.
In vitro inhibition of DGAT-1 was measured using a modification, further described below, of the assay methodology described in U.S. Pat. No. 6,994,956 B2. The cells were cultured as follows. Sf9 cells (20 L) were infected with 4 mL of DGAT-1 Baculovirus Infected Insect Cells (BIIC) for 72 hours in a Wave Bioreactor System 20/50P (Wave Biotec/GE Healthcare).
Crude DGAT-1 microsomes were prepared as follows. Cell pellets were washed once with ice-cold Dulbecco's phosphate-buffered saline. Cells were collected in tabletop centrifuge (Beckman GS-6KR), 15 minutes, 2000×g, 4° C. Twenty (20) mL of ice-cold Microsome Buffer (MB) was added per 5 g of cell pellet. The suspension was passed through a microfluidizer 3 times (18K psi). […] The microsome concentration was determined using Bio-Rad Protein DC Protein Assay. […]
The Microsome Buffer, used for microsome preparation, was prepared by conventional means and contained 125 mM sucrose, 3 mM imidazole, 0.2 μg/mL aprotinin, 0.2 μg/mL leupeptin and 5 mM dithiothreitol (Cleland's reagent) at pH-7.4 DGAT-1 activity was measured in 384-well format in a total assay volume of 20 μl that contained, Hepes buffer (50 mM, pH 7.5), MgCl2 (10 mM), bovine serum albumin (0.6 mg/ml), [^14C]decanoylCoA (25 μM, 58 Ci/mol) and microsomes (5.6 μg/ml) into which 1,2 dioleoyl-sn-glycerol (75 μM) in acetone has already been incorporated. […]
The reactions were allowed to proceed for 1.5 h at room temperature and then terminated by the addition of 20 μl of EDTA (40 mM). […] Plates contents were allowed to partition for 15 to 30 min before ^14C was measured in a scintillation spectrometer (Wallac Microbeta Trilux 1450-030, 12 detector in the top-count DPM mode). […]

Question: For Cc1nc(N)c2c(n1)CCN(c1ccc(C3CCC(CC(=O)O)CC3)cc1)C2=O (stereo not drawn) [Example 13, 2-(4-(4-(4-amino-2-methyl-5-oxo-7,8-dihydropyrido[4,3-d]pyrimidin-6(5H)-yl)phenyl)cyclohexyl)acetic acid], which IC50 is on record?
Answer: Its IC50 is 231 nM.

Question: Which IC50 does the source give for Cc1nc(N)c2c(n1)CCN(c1ccc([C@H]3CC[C@H](CC(=O)O)CC3)cc1)C2=O [Example 14, {trans-4-[4-(4-amino-2-methyl-5-oxo-7,8-dihydropyrido[4,3-d]pyrimidin-6(5H)-yl)phenyl]cyclohexyl}acetic acid] here?
Answer: Its IC50 is 618 nM.

Question: For Cc1nc(N)c2c(n1)CCN(c1ccc([C@H]3CC[C@@H](CC(=O)O)CC3)cc1)C2=O [Example 15, {cis-4-[4-(4-amino-2-methyl-5-oxo-7,8-dihydropyrido[4,3-d]pyrimidin-6(5H)-yl)phenyl]cyclohexyl}acetic acid], which IC50 is on record?
Answer: Its IC50 is 717 nM.
